The record followed here is patent US8912195B2, “Alkyl amides as HIV attachment inhibitors” (priority 2010, dated 2014).

Structures are written as SMILES. Some results are limits rather than exact numbers.

For one test, the system named is single-round infectious reporter virus with HIV-1 LAI envelope. The test can be described thus: Single-round infectious HIV-1 LAI luciferase reporter virus infection of MT2 cells. In kind it is cell-based. The following applies: Human immunodeficiency virus 1, MT2, 72 h. The text has this:
• Virus production—Human embryonic Kidney cell line, 293T (HEK 293T), was propagated in Dulbecco's Modified Eagle Medium (Invitrogen, Carlsbad, Calif.) containing 10% fetal Bovine serum (FBS, Sigma, St. Louis, Mo.). The human T-cell leukemia cell MT2 (AIDS Research and Reference Reagent Program, Cat. 237) was propagated in RPMI 1640 (Invitrogen, Carlsbad, Calif.) containing 10% fetal bovine serum (FBS, Hyclone, Logan, Utah) • Virus infection—Single-round infectious reporter virus was produced by co-transfecting HEK 293T cells with plasmide expressing the HIV-1 LAI envelope along with a plasmid containing an HIV-1 LAI proviral cDNA with the envelope gene replaced by a firefly luciferase reporter gene (Chen et al, Ref 41). Transfections were performed using lipofectAMINE PLUS reagent as described by the manufacturer (Invitrogen, Carlsbad, Calif.).
• 1. MT2 cells were plated in black, 384 well plates at a cell density of 5×10^3 cells per well in 25 μl RPMI 1640 containing 10% FBS. • 2. Compound (diluted in dimethylsulfoxide and growth medium) was added to cells at 12.5 μl/well, so that the final assay concentration would be ≦50 nM. • 3. 12.5 μl of single-round infectious reporter virus in Dulbecco's Modified Eagle Medium was added to the plated cells and compound at an approximate multiplicity of infection (MOI) of 0.01, resulting in a final volume of 50 μl per well. • 4. Virus-infected cells were incubated at 37 degrees Celsius, in a CO2 incubator, and harvested 72 h after infection. • 5. Viral infection was monitored by measuring luciferase expression in the infected cells using a luciferase reporter gene assay kit (Steady-Glo, Promega, Madison, Wis.) as described by the manufacturer. Luciferase activity was then quantified by measuring luminescence using an EnVision Multilabel Plate Readers (PerkinElmer, Waltham, Mass.). • 6. The percent inhibition for each compound was calculated by quantifying the level of luciferase expression in cells infected in the presence of each compound as a percentage of that observed for cells infected in the absence of compound and subtracting such a determined value from 100. • 7. An EC50 provides a method for comparing the antiviral potency of the compounds of this disclosure. The effective concentration for fifty percent inhibition (EC50) was calculated with the Microsoft Excel Xlfit curve fitting software. For each compound, curves were generated from percent inhibition calculated at 10 different concentrations by using a four paramenter logistic model (model 205). Table 1 is the key for the data in Table 2.
`O=C(C(=O)N1CCN(C(=O)C23CC4CC(CC2C4)C3)CC1)c1c[nH]c2c(-n3ccnn3)ncc(F)c12` [Compound 2004] showed an EC50 of 1.15 nM.

The same test, now with this note: Human immunodeficiency virus 1, MT2, 72 h, read-out: EC50 Group from Table 1.
In the case of `O=C(C(=O)N1CCN(C(=O)C2C[C@H]3C[C@@H]2CCC3O)CC1)c1c[nH]c2c(-n3ccnn3)ncc(F)c12` (stereo partly shown) [Compound 2010], the EC50 is < 500 nM.
The same measure, in the same setting: as for `O=C(C(=O)N1CCN(C(=O)C23CC4CC(CC2C4)C3)CC1)c1c[nH]c2c(-n3ccnn3)ncc(F)c12` [Compound 2004], the figure is < 500 nM; as for `CC(C)(C)OC(=O)N[C@H](C(=O)N1CCN(C(=O)C(=O)c2c[nH]c3c(-n4ccnn4)ncc(F)c23)CC1)c1ccccc1` [Compound 2031], > 500 nM; as for `CC(C)(C)OC(=O)N1CCC(C(=O)N2CCN(C(=O)C(=O)c3c[nH]c4c(-n5ccnn5)ncc(F)c34)CC2)C1` (stereo not shown) [Compound 2033], > 500 nM.
On the same count and under the same terms, as for `CC1(C)CC(C(=O)N2CCN(C(=O)C(=O)c3c[nH]c4c(-n5ccnn5)ncc(F)c34)CC2)CC(C)(C)N1` [Compound 2025], the figure is > 500 nM; as for `O=C(C(=O)N1CCN(C(=O)C2CCC(O)CC2)CC1)c1c[nH]c2c(-n3ccnn3)ncc(F)c12` (stereo not shown) [Compound 2018], < 500 nM.
Still for that read-out and setting: for `O=C(C(=O)N1CCN(C(=O)C23CC4CC(CC(C4)C2)C3)CC1)c1c[nH]c2c(-n3ccnn3)ncc(F)c12` [Compound 2016] the value was < 500 nM; for `O=C(C(=O)N1CCN(C(=O)C2CCCO2)CC1)c1c[nH]c2c(-n3ccnn3)ncc(F)c12` (stereo not shown) [Compound 2002], < 500 nM; for `CN1CCCCC1C(=O)N1CCN(C(=O)C(=O)c2c[nH]c3c(-n4ccnn4)ncc(F)c23)CC1` (stereo not shown) [Compound 2029], > 500 nM.
